Assay results as given in publication PMC11272598, “RG7774 (Vicasinabin), an orally bioavailable cannabinoid receptor 2 (CB2R) agonist, decreases retinal vascular permeability, leukocyte adhesion, and ocular inflammation in animal models” (Frontiers in Pharmacology, 2024).
Like-named read-outs stand apart in the source and are kept apart here.

What was measured:
[1] = biological target: T1, endogenous CB2R in human Jurkat cells (Homo sapiens, UniProt P34972); assay: Competition binding, [^3H]-RO6753361, Jurkat cell membranes
T1 construct: endogenous CB2R in human Jurkat cells; endogenous in cells; host or cells: Jurkat cells
Procedure: Competition and saturation binding assays were performed using the radiolabeled CB1R/CB2R agonist [^3H]-CP55940 (PerkinElmer, Waltham, MA, United States) in recombinant cell systems, and the newly developed CB2R-selective agonist [^3H]-RO6753361 ([Chicca et al., 2024]) in cells expressing endogenous CB1R/CB2R. Competition assays were conducted by incubating 5, 40, or 40 µg of membrane protein from CHO cells, Jurkat cells or spleen cells, respectively, with 1.5 nM [^3H]-CP55940 or 1.5 nM [^3H]-RO6753361 in the presence or absence of increasing concentrations of ligand (RG7774 or control) for 2 h at 30°C in a final volume of 0.2 mL of assay buffer (50 mmol/L Tris-HCl, 5 mmol/L MgCl2, 2.5 mmol/L EDTA, and 0.5% fatty acid-free BSA [pH 7.4] and 1% DMSO), with gentle shaking. Saturation binding assays were conducted by incubating 1–3 μg, 40 μg, or 30–40 μg of membrane protein from CHO cells, Jurkat cells, or spleen tissue, respectively, with 12 concentrations in the range of 80–0.039 nM [^3H]-CP55940 or [^3H]-RO6753361 for 2 h at 30°C in a final volume of 0.2 mL/well of assay buffer without DMSO. […] IC50 values and Hill slopes were determined with a 4-parameter logistic model using ActivityBase (ID Business Solution, Guilford, United Kingdom) and pKi values were determined using the Cheng-Prusoff equation ([Cheng and Prusoff, 1973]).

Human EMT = Human EMT activity (HaCaT cells); assay type: cell-based; conditions: RG7774 10 µM
Procedure: HaCaT cells were seeded (350,000–400,000 cell/well) in triplicate in 12-well plates and incubated for 15 min in PBS at 37°C with [^3H]-N-arachidonoylethanolamine ([^3H]-AEA) (400 nM) (ARC, MO, USA), as previously reported. Experiments were repeated at 4°C in order to subtract passive diffusion from EMT-mediated uptake. RG7774 (10 µM) was preincubated with labeled HaCaT cells for 15 min before adding directly to the incubation medium (PBS). The selective EMT inhibitor, OMDM-1 (40 µM), was used as positive control.

logD 7.4 = assay type: physicochemical; conditions: octanol/water, pH 7.4
Text: TABLE 2 Physicochemical and ADMET profile for RG7774.

[2] = Thermodynamic solubility (THESA/FaSSIF/FeSSIF); assay type: physicochemical
Text: S2.2 Thermodynamic solubility assay (THESA)

Plasma protein binding = assay type: in vitro ADME; conditions: read-out: PPB (fu)
Procedure: Pooled and frozen plasma from selected species were obtained from commercial suppliers (human […] and mouse […]3-C57; BioreclamationIV, NY, USA). Unbound RG7774 was identified using a 96-well, 150 μL, half-cell capacity Teflon equilibrium dialysis device with a 12–14 kDa molecular weight cut-off membrane (HT-Dialysis; Gales Ferry, CT, USA) to minimize nonspecific binding. RG7774 and positive control (diazepam) were tested with an initial total concentration of 1000 nM (cassettes of 2 to 5 test items). Equal volumes of matrix samples containing RG7774 or diazepam and blank (Soerensen) dialysis buffer were loaded into the opposite compartments of each well. Biological matrix and phosphate buffer were adjusted to pH 7.4 on the day of the experiment. The dialysis block was sealed and incubated at 37 °C in 5% CO2 for 5 h. The seal was removed and matrix and buffer from each dialysis were sampled and analyzed by LC-MS/MS. All protein binding determinations were performed in triplicate. Membrane integrity was tested in the HT-Dialysis device by determining the unbound fraction values for diazepam in each well. At equilibrium, the unbound drug concentration in the biological matrix compartment of the equilibrium dialysis apparatus is the same as the concentration of the compound in the buffer compartment. Thus, the percent unbound fraction was calculated as follows: % fraction unbound = 100 × buffer concentration after dialysis/matrix concentration after dialysis. Device recovery was checked by measuring the concentrations of compound in the matrix before dialysis and calculating the percent recovery (mass balance). Recovery ranging from 80%–120% was required for data acceptance.

[3] = Cerebrospinal fluid versus plasma concentration (data on file); assay type: in vivo; conditions: cynomolgus monkeys
human CB1R = human CB1R (Homo sapiens, UniProt P21554); assay: Forskolin-stimulated cAMP assay in CHO cells; assay type: cell-based; set-up: bgal (beta-galactosidase fragment of the PathHunter system); host or cells: CHO-K1; conditions: recombinant CHO cells
Procedure: The inhibitory effects of RG7774 on forskolin-stimulated accumulation of cAMP were determined using the cAMP-Nano-TRF detection kit (Roche Diagnostics, Penzberg, Germany), as previously described ([Porter et al., 2019]). CHOK1hCB1_bgal, CHOK1mCB2_bgal, and CHOK1hCB2_bgal cells (DiscoveRx, Fremont, CA, United States) were seeded 17–24 h prior to the experiment at a density of 3 × 10^4 cells per well in a black 96-well plate with a flat, clear bottom (Corning, Wiesbaden, Germany) prior to incubating in 5% CO2 at 37°C in a humidified incubator. The growth medium was exchanged with Krebs Ringer bicarbonate buffer containing 1 mM IBMX and 0.1% fatty acid-free BSA and incubated at 30°C for 1 h. RG7774 or positive control (CP55940) (1 µM) was added to a 0.1 mL final assay volume and the mixture was incubated at 30°C for 30 min. The assay was stopped by adding 50 μL 3x lysis reagent and shaking for 2 h at RT. The time-resolved energy transfer was measured using an LF502 Nanoscan FLT (IOM, Berlin, Germany) equipped with a laser excitation source. cAMP content was determined from a standard curve spanning 10–0.13 nM cAMP. Efficacies were expressed as a percentage relative to the positive control.

T1 sequence (P34972 whole entry): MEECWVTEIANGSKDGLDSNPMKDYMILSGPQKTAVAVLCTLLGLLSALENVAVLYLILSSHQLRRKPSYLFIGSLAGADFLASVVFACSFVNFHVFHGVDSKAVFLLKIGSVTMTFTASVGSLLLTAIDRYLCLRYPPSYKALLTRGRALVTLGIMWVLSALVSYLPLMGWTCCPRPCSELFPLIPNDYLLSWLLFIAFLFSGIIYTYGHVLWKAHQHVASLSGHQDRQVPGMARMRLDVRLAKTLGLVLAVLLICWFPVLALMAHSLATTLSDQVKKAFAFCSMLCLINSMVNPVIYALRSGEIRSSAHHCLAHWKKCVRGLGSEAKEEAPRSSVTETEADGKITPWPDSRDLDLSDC
Chain of human CB1R (P21554 whole entry, the tested form may be a part): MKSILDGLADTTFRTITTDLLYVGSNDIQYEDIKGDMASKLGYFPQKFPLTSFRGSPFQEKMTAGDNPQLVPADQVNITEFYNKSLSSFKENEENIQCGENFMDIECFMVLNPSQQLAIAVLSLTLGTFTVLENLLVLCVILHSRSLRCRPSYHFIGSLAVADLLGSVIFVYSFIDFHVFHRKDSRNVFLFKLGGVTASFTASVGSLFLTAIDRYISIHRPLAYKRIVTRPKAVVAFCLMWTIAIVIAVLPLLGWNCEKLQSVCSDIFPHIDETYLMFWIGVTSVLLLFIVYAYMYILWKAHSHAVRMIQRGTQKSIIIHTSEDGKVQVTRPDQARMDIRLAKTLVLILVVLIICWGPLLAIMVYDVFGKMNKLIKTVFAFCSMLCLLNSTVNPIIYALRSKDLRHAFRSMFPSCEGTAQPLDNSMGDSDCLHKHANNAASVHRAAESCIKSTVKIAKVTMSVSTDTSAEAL

Cn1nnnc1Cn1nnc2c(N3CC[C@H](O)C3)nc(C(C)(C)C)nc21 [RG7774, (S)-1-(5-tert-butyl-3-[(1-methyl-1H-tetrazol-5-yl)methyl]-3H-[1,2,3]triazolo[4,5-d]pyrimidin-7-yl)pyrrolidin-3-ol]
Ki [1]: 31.9 ± 13.4 nM | Mean ± SEM % inhibition of control, Human EMT (Human EMT): 4.5 ± 25.5% | logD (logD 7.4): 2.2 | FaSSIF ([2]; fasted simulated gastrointestinal fluid): 1177 µg/mL | FeSSIF ([2]; fed simulated gastrointestinal fluid): 2872 µg/mL | THESA ([2]; thermodynamic solubility): 901 µg/mL | fraction unbound at 5 h, 1000 nM (Plasma protein binding; C57, pooled plasma, pH 7.4, mouse): 0.045 | fraction unbound at 5 h, 1000 nM (Plasma protein binding; pooled plasma, pH 7.4, human): 0.178 | fraction unbound at 5 h, 1000 nM (Plasma protein binding; pooled plasma, pH 7.4, rat): 0.158 | concentrations lower in cerebrospinal fluid than in plasma [3]: approximately 10 fold | effect on human CB1R in cAMP assay (human CB1R): no effect
